Laboratory results from patent US20220163532A1, “NUCLEAR-DERIVED EXOSOMES AND METHODS OF USE THEREOF” (Board of Regents, The University of Texas System, priority 2019, published 2022).

What was measured:
[1] = test system: OVCAR-5 ovarian cancer model; assay: MN quantification in tumor nodules of OVCAR-5 intraperitoneal model after topotecan; type: in vivo, mouse; conditions: topotecan 7.5 mg/kg intraperitoneally, single dose, euthanized 48 hours later; vs vehicle control
Procedure: In vivo experiments. For the in vivo mouse experiments, female athymic (NCr-nude) mice were purchased from Taconic Biosciences. Mice were cared for in accordance with the American Association for Assessment and Accreditation of Laboratory Animal Care and the U.S. Public Health Service policy on Humane Care and Use of Laboratory Animals. All studies and experiments that were performed were supervised and approved by the MD Anderson Institutional Animal Care and Use Committee. Mice were 10 to 15 weeks old at the time of tumor intraperitoneal cell injections. OVCAR-5 luciferase—labeled cells (1×10^6) were injected intraperitoneally into each mouse. […]
Human tumor samples and MN quantification. […] For MN identification and quantification, the Vectra Polaris platform (PerkinElmer) was used, and inForm software (PerkinElmer) was used to systematically count MN. After tissue segmentation, a number of nuclei in views were calculated by the cell segmentation process, and MN was defined as over 0.85 roundness and less than approximately 3 μm size (95 pixels in 96 dpi images), as shown in FIG. 3D.
To validate these findings in vivo, the OVCAR-5 ovarian cancer model, which represents disseminated peritoneal disease, was used. […] To calculate the number of MN, multiple IF images of tumor slides were taken, and MN were systematically counted by the Vectra—inForm Image Analysis System (PerkinElmer) (FIG. 3D).

[2] = test system: OVCAR-5 and OVCAR-8 cells; assay: MN quantification in ovarian cancer cells treated with genotoxic drugs (IF, Lamin A/C); type: cell-based, human; conditions: topotecan 10 nM or olaparib 20 μM, vs DMSO
Procedure: IF experiments and MN quantification. Cells were plated at a density of 5×10^4 cells on sterile, 0.17-mm-thick coverslips (12-548-A, Thermo Fisher Scientific) placed at the bottom of six-well plates. The next day, cells were treated for 24 hours with either vehicle control dimethyl sulfoxide (DMSO; 1:1000 dilution; D2650, Sigma-Aldrich), 20 μM olaparib (O-9201, LC Laboratories), or 10 nM topotecan (T2705-50MG, Sigma-Aldrich). After 24 hours, the cells were washed with PBS and refed with the appropriate cell culture medium to grow for another 48 hours, for a total time of 72 hours after initial plating on the coverslips.
The drug-treated cells were first washed three times with PBS, fixed with 4% paraformaldehyde (PFA; 50-980-487, Thermo Fisher Scientific) diluted in PBS, and incubated at RT for 15 min with light rocking. […] Last, cells on coverslips were then washed four times with PBS and mounted on slides using ProLong Diamond Antifade Mountant (P36961, Thermo Fisher Scientific) and imaged with a Leica fluorescence microscope (Leica DM4000 M LED; Leica Microsystems) or an Andor Revolution XDi WD Spinning Disk Confocal microscope. For MN quantification, the number of MN in each 40× field was counted using 10 fields per sample. […]

**Q.** What does the source list for `CC[C@@]1(O)C(=O)OCc2c1cc1n(c2=O)Cc2cc3c(CN(C)C)c(O)ccc3nc2-1` [topotecan]?
**A.** MN-positive cell percentages in tumor [1]: trend toward an increased; number of MN [2]: increased significantly
